Experimental data: US20160213499A1, “BIODEGRADABLE ENDOPROSTHESES AND METHODS FOR THEIR FABRICATION” (Elixir Medical Corporation, priority 2015, published 2016)

Test: Pharmacokinetic release profile of novolimus from a stent (FIG. 35)
Type: in vivo

tissue drug concentration (at 90 days): 0.5 ng/mg | drug released (in one month): over 85%
Structure (SMILES): CO[C@@H]1C[C@H](C[C@@H](C)[C@@H]2CC(=O)[C@H](C)/C=C(\C)[C@@H](O)[C@@H](OC)C(=O)[C@H](C)C[C@H](C)/C=C/C=C/C=C(\C)[C@@H](O)C[C@@H]3CC[C@@H](C)[C@@](O)(O3)C(=O)C(=O)N3CCCC[C@H]3C(=O)O2)CC[C@H]1O [novolimus, 16-O-desmethyl-rapamycin]
